Assay results published in PubChem BioAssay (NCI).
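Protocol summary: plate cells (96-well), add compound at 5 concentrations, incubate 48 h, interpolate endpoints linearly. Definition used: TGI = concentration required for complete inhibition of growth.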

Legend:
Test in all cases: growth of human tumour cells (NCI), 48 h
ACHN renal = test system: ACHN renal
DU-145 prostate = test system: DU-145 prostate
EKVX NSCLC = test system: EKVX NSCLC
HL-60(TB) leukemia = test system: HL-60(TB) leukemia
IGROV1 ovarian = test system: IGROV1 ovarian
KM12 colon = test system: KM12 colon
LOX IMVI melanoma = test system: LOX IMVI melanoma
MALME-3M melanoma = test system: MALME-3M melanoma
MDA-MB-435 = test system: MDA-MB-435
NCI-H23 lung = test system: NCI-H23 lung
OVCAR-3 ovarian = test system: OVCAR-3 ovarian
SF-295 CNS = test system: SF-295 CNS
SK-MEL-2 melanoma = test system: SK-MEL-2 melanoma
SK-OV-3 ovarian = test system: SK-OV-3 ovarian
SNB-19 CNS = test system: SNB-19 CNS
SNB-75 CNS = test system: SNB-75 CNS
SR leukemia = test system: SR leukemia
T-47D breast = test system: T-47D breast
TK-10 renal = test system: TK-10 renal

SMILES | TGI (ACHN renal) [µM] | TGI (DU-145 prostate) [µM] | TGI (EKVX NSCLC) [µM] | TGI (HL-60(TB) leukemia) [µM] | TGI (IGROV1 ovarian) [µM] | TGI (KM12 colon) [µM] | TGI (LOX IMVI melanoma) [µM] | TGI (MALME-3M melanoma) [µM] | TGI (MDA-MB-435) [µM] | TGI (NCI-H23 lung) [µM] | TGI (OVCAR-3 ovarian) [µM] | TGI (SF-295 CNS) [µM] | TGI (SK-MEL-2 melanoma) [µM] | TGI (SK-OV-3 ovarian) [µM] | TGI (SNB-19 CNS) [µM] | TGI (SNB-75 CNS) [µM] | TGI (SR leukemia) [µM] | TGI (T-47D breast) [µM] | TGI (TK-10 renal) [µM]
C=CC(=O)NCCC(=O)OCn1cc(F)c(=O)[nH]c1=O | > 100 | > 100 | > 100 | > 100 | > 100 | > 100 | > 100 | > 100 | > 100 | > 100 | > 100 | > 100 | > 100 | > 100 | > 100 | > 100 | 52.5 | > 100 | > 100
O=c1[nH]c(=S)[nH]cc1CN1CCOCC1 | > 100 | > 100 | > 100 | > 100 | > 100 | > 100 | > 100 | > 100 | > 100 | > 100 | > 100 | > 100 | > 100 | > 100 | > 100 | > 100 | > 100 | > 100 | > 100
CC(NCc1c(O)ccc2c(-c3ccccc3)cc(=O)oc12)C(=O)O (centres undefined) | > 100 | > 100 | > 100 | > 100 | > 100 | > 100 | > 100 | > 100 | > 100 | > 100 | > 100 | > 100 | > 100 | > 100 | > 100 | > 100 | > 100 | > 100 | > 100
COC(=O)NC(=O)NC(Cc1ccccc1)NC(=O)OCc1ccccc1 (centres undefined) | > 100 | > 100 | > 100 | > 100 | > 100 | > 100 | > 100 | > 100 | > 100 | > 100 | > 100 | > 100 | > 100 | 57.5 | > 100 | 50.5 | > 100 | > 100 | > 100
COc1ccc2c(c1)/C(=C/c1c(O)[nH]c(=S)[nH]c1=O)C=N2 | > 100 | > 100 | > 100 | > 100 | > 100 | > 100 | > 100 | > 100 | > 100 | > 100 | > 100 | > 100 | > 100 | > 100 | > 100 | 49.9 | > 100 | > 100 | > 100
C=CCOC(=O)Cn1cnc2c(N)ncnc21 | > 100 | > 100 | > 100 | > 100 | > 100 | > 100 | > 100 | > 100 | > 100 | > 100 |  | > 100 | > 100 | > 100 | > 100 | > 100 | > 100 | > 100 | > 100
Cc1ccc(S(=O)(=O)NNC(=O)Nc2cccc(C(F)(F)F)c2)cc1 | > 100 | > 100 | > 100 | > 100 | > 100 | > 100 |  | > 100 | > 100 | > 100 |  | > 100 | > 100 | > 100 | > 100 | 53.7 | > 100 | > 100 | > 100
CCCN(CCC)C(=S)Sc1nc(C)nc(N2CCN(c3nc(C)nc(SC(=S)N(CCC)CCC)c3[N+](=O)[O-])CC2)c1[N+](=O)[O-] | 40.9 | > 100 | > 83 | > 38.3 | 41 | 33.4 | 2.27 | 45.6 | > 65.9 | 36.8 |  | > 58.1 | 30.9 | > 100 | > 88.3 | > 100 | > 81.9 | 39.9 | 41.9
O=C1C2C3C4C1C1C2[C@H](OCc2ccccc2)C3C1[C@H]4OCc1ccccc1 (some centres undefined) | > 100 | > 100 | 89.1 | 50.9 | > 100 | > 100 | > 100 | > 100 | > 100 | > 100 | > 100 | > 100 | > 100 | > 100 | > 100 | > 100 | > 100 | > 100 | > 100
NS(=O)(=O)c1ccc(NC(=S)NC(=O)Nc2ccc(Cl)c(Cl)c2)cc1 | 32.2 | 33.7 | 51 | 33.5 | 39.2 | 28.3 | 19.1 | 33.5 | 35.7 | 33.7 | 42 | 30.8 | 34.4 | 38.9 | 24.5 | 28.8 | > 100 | 33.3 | 81.5
C#CCOC(=O)C(N)CC(N)=O (centres undefined) | > 100 | > 100 | > 100 | > 100 | > 100 | > 100 | > 100 | > 100 | > 100 | > 100 | > 100 | > 100 | > 100 | > 100 | > 100 | > 100 | > 100 | > 100 | > 100
CCCCNC(=O)OCCN=c1c2ccccc2ccc2ccccc12 | > 100 | > 100 | > 100 | > 100 | > 100 | > 100 | > 100 | > 100 | > 100 | > 100 | > 100 | > 100 | > 100 | > 100 | > 100 | > 100 | > 100 | > 100 | > 100
Cc1cccc(Nc2nc3ccccc3nc2NS(=O)(=O)c2ccc(N)cc2)c1 | > 100 | > 100 | > 100 | > 100 | > 100 | > 100 | > 100 | > 100 | > 100 | 53.3 | > 100 | > 100 | 81.5 | > 100 | > 100 | > 100 | > 100 | > 100 | > 100
Clc1ccc(Cc2nc3ccccc3o2)cc1 | > 100 | > 100 | > 100 | > 100 | > 100 | > 100 | > 100 | > 100 | > 100 | > 100 | > 100 | > 100 | > 100 | > 100 | > 100 | 91.2 | > 100 | > 100 | > 100
CC(=O)c1ccc(Br)cc1NC1=CC(=O)c2ncccc2C1=O | 12.5 | 16.4 | 19.4 | 3.61 | 12.4 | 11.7 | 18.9 | 5.69 | 3.06 | 13 | 4.09 | 14.3 | 16.9 | 29.1 | 11.3 | 5.58 | 5.97 | 9.37 | 31.4
CCCc1nnc2sc(COc3ccc(OCc4nn5c(CCC)nnc5s4)c(Cl)c3)nn12 | 59.1 | > 100 | 48.1 | 40.9 | > 100 | > 100 | > 100 | > 100 | 59 | > 100 | > 100 | > 100 | > 100 | > 100 | > 100 | 73.7 | 64.1 | 39.6 | 93.5
Cc1ccc(-c2n[nH]c(=O)n2/N=C\c2ccccc2O)cc1 | > 100 | > 100 | > 100 | > 100 | > 100 | > 100 |  | > 100 | > 100 | > 100 | > 100 | > 100 | > 100 | > 100 | > 100 | > 100 | > 100 | > 100 | > 100
COC1=C(C(c2cc(OC)c(OC)c(OC)c2)c2cc3c(cc2OC)OCO3)C(=O)OC1 (centres undefined) | > 79.3 | 70.5 | > 81.6 | 49.9 | > 84.8 | 40.9 | > 100 | > 73.2 | 17.5 | > 80 | > 61 | 51.4 | > 100 | > 78.6 | > 95.6 | > 64.3 | > 61.7 | > 100 | > 73.2
CC1=C(O)C(=O)C=C2C1=CC=C1[C@@]2(C)CC[C@@]2(C)C3C[C@@H](C)C(=O)[C@@H](O)[C@]3(C)CC[C@]12C (some centres undefined) | 3.07 | 3.38 | 4.12 | 2.76 | 3.28 | 19.6 | 3.02 | 3.97 | 6.6 | 3.6 | 3.6 | 13.4 | 9.85 | 22.2 | 9.23 | 17.3 | 1.3 | 3.44 | 3.82
O=C1c2ccccc2-c2nnc3c(c21)Cc1ccccc1C3 | > 10 | > 10 | > 10 | > 10 | > 10 | > 10 | > 10 | > 10 | > 10 | > 10 | > 10 | > 10 | > 10 | > 10 | > 10 | > 10 | > 10 | > 10 | > 10
COc1cccc(OC)c1C1ON=C(c2ccccc2)N1C12CC3CC(CC(C3)C1)C2 (centres undefined) | > 100 | > 100 | > 100 | 4.63 | > 100 | > 100 | > 100 | > 100 | > 100 | > 100 | > 100 | > 100 | > 100 | > 100 | > 100 | > 100 | > 100 | > 100 | > 100
NC(N)=N/N=C/c1c(-c2ccccc2[N+](=O)[O-])nc2sccn12 | > 100 | > 100 | > 100 | 40.4 | > 100 | 46.9 | 44.4 | 32.3 | 35.1 | 86.5 | > 100 | 50 | 30.4 | > 100 | 77.4 | 34.2 | 35.1 | 59 | 57
C#CCN(Cc1ccc2nc(-c3ccccc3)c(Cl)nc2c1)c1ccc(F)cc1 | > 100 | > 100 | > 100 | 87.2 | > 100 | > 100 | > 100 | > 100 | > 100 | > 100 | > 100 | > 100 | > 100 |  | > 100 | > 100 | > 100 | > 100 | > 100
CC(C)(C)C(=O)/C=C(\OB(F)F)C(C)(C)C | > 100 | > 100 | > 100 | > 100 | > 100 | > 100 | > 100 | > 100 | > 100 | > 100 | > 100 | > 100 | > 100 | > 100 | > 100 | > 100 | > 100 | > 100 | > 100
CC(C)=CCC[C@@H](C)[C@H]1CC[C@@]2(C)[C@@H]3CC[C@H]4C(C)(C)[C@@H](O)CC[C@@]45C[C@@]35CC[C@]12C | > 73.1 | > 100 | > 88.8 | > 95.4 | 40.5 | > 100 | 56.5 | > 100 | > 68.8 | 50.7 | > 100 | > 78.7 | > 100 | > 100 | > 100 | > 100 | > 67.1 | > 100 | > 100
